Assay results reported in ChEMBL document CHEMBL5108027, “An unanticipated discovery of novel naphthalimidopropanediols as potential broad-spectrum antibacterial members” (Eur J Med Chem, 2022).
In brackets after ≈: the same amount, converted by molar mass. Activity calls are given as the source filed them. The rule behind the calls is not given here.

Assays:
Staphylococcus aureus [1] = assay: Antibacterial activity against methicillin-resistant Staphylococcus aureus N315 measured by Muller-Hinton broth based microdilution assay; type: functional
Enterococcus faecalis = assay: Antibacterial activity against Enterococcus faecalis measured by Muller-Hinton broth based microdilution assay; type: functional
Staphylococcus aureus [2] = assay: Antibacterial activity against Staphylococcus aureus measured by Muller-Hinton broth based microdilution assay; type: functional
Staphylococcus aureus [3] = assay: Antibacterial activity against Staphylococcus aureus ATCC 25923 measured by Muller-Hinton broth based microdilution assay; type: functional
Staphylococcus aureus [4] = assay: Antibacterial activity against Staphylococcus aureus ATCC 29213 measured by Muller-Hinton broth based microdilution assay; type: functional
Klebsiella pneumoniae = assay: Antibacterial activity against Klebsiella pneumoniae measured by Muller-Hinton broth based microdilution assay; type: functional
Escherichia coli [5] = assay: Antibacterial activity against Escherichia coli measured by Muller-Hinton broth based microdilution assay; type: functional
Pseudomonas aeruginosa [6] = assay: Antibacterial activity against Pseudomonas aeruginosa measured by Muller-Hinton broth based microdilution assay; type: functional
Acinetobacter baumannii = assay: Antibacterial activity against Acinetobacter baumannii measured by Muller-Hinton broth based microdilution assay; type: functional
Pseudomonas aeruginosa [7] = assay: Antibacterial activity against Pseudomonas aeruginosa ATCC 27853 measured by Muller-Hinton broth based microdilution assay; type: functional
Escherichia coli [8] = assay: Antibacterial activity against Escherichia coli ATCC 25922 measured by Muller-Hinton broth based microdilution assay; type: functional
[9] = Hemolytic activity in human RBC measured after 1 hr; type: toxicity, cell-based, Erythrocyte; conditions: human red blood cells (erythrocytes)
[10] = Selectivity ratio of HC50 for hemolytic activity in human RBC to MIC for antibacterial activity against Staphylococcus aureus; type: toxicity; conditions: human red blood cells (erythrocytes)
[11] = Hemolytic activity in human RBC assessed as hemolytic rate at 2 to 512 ug/ml and measured after 1 hr; type: toxicity, cell-based, Erythrocyte; conditions: human red blood cells (erythrocytes), at 2 to 512 µg/mL, dose 2-512 µg/ml, read-out: Activity
Staphylococcus aureus [12] = assay: Antibacterial activity against Staphylococcus aureus measured after 16 passages by resistance development assay; type: functional, organism-based
Staphylococcus aureus [13] = assay: Inhibition of bacterial growth of Staphylococcus aureus at 1 to 2 times MIC; type: functional
Staphylococcus aureus [14] = assay: Bactericidal activity against Staphylococcus aureus assessed as reduction in number of colonies at 0.5 to 2 times MIC measured within 6 hrs by time-kill assay; type: functional, organism-based
Staphylococcus aureus [15] = assay: Induction of membrane depolarization in Staphylococcus aureus at 0.5 to 2 times MIC measured upto 1 hr by DiSC35 dye-based fluorescence assay; type: functional, organism-based
Staphylococcus aureus [16] = assay: Induction of inner membrane permeabilization in Staphylococcus aureus by measuring increase in fluorescence intensity at 1 to 8 times MIC by calcein-AM/PI staining based fluorescence analysis; type: functional, organism-based
Staphylococcus aureus [17] = assay: Disruption of membrane integrity in Staphylococcus aureus at 8 times MIC by calcein-AM/PI staining based fluorescence analysis; type: functional, organism-based
Staphylococcus aureus [18] = assay: Antibacterial activity against Staphylococcus aureus assessed as deformed and shriveled cell structures at 1 to 2 ug/ml measured by SEM analysis; type: functional, organism-based; conditions: dose 1-2 µg/ml
Escherichia coli [19] = assay: Antibacterial activity against Escherichia coli assessed as deformed and shriveled cell structures at 8 to 16 ug/ml measured by SEM analysis; type: functional, organism-based; conditions: dose 8-16 µg/ml
Staphylococcus aureus [20] = assay: Antibacterial activity against Staphylococcus aureus assessed as lysed debris at 1 to 2 ug/ml measured by SEM analysis; type: functional, organism-based; conditions: dose 1-2 µg/ml
Escherichia coli [21] = assay: Antibacterial activity against Escherichia coli assessed as lysed debris at 8 to 16 ug/ml measured by SEM analysis; type: functional, organism-based; conditions: dose 8-16 µg/ml
Staphylococcus aureus [22] = assay: Disruption of membrane integrity in Staphylococcus aureus assessed as increase in nucleic acid leakage by measuring increase in absorbance 1 to 8 times MIC measured for 6 hrs by spectrophotometry; type: functional, organism-based
Staphylococcus aureus [23] = assay: Disruption of membrane integrity in Staphylococcus aureus assessed as increase in protein leakage by measuring increase in absorbance 1 to 8 times MIC measured for 6 hrs by Bradford assay; type: functional, organism-based
Staphylococcus aureus [24] = assay: Antibacterial activity against Staphylococcus aureus assessed as reduction in LDH activity at 1 to 8 times MIC measured after 6 hrs by microplate reader method; type: functional; set-up: scale not given: the % may be the effect or the level left
Staphylococcus aureus [25] = assay: Induction of oxidative stress in Staphylococcus aureus assessed as increase in intracellular ROS level at 1 to 8 times MIC measured after 6 hrs by DCFH-DA staining method; type: functional, organism-based
Staphylococcus aureus [26] = assay: Induction of oxidative stress in Staphylococcus aureus assessed as decrease in GSH activity at 1 to 8 times MIC measured after 6 hrs by Ellman's assay; type: functional, organism-based
Staphylococcus aureus [27] = assay: Antibacterial activity against Staphylococcus aureus assessed as reduction in metabolic activity at 1 to 8 times MIC measured after 6 hrs by Alamar blue assay; type: functional, organism-based
Staphylococcus aureus [28] = assay: Inhibition of biofilm formation in Staphylococcus aureus at 1 to 8 times MIC measured after 24 hrs by crystal violet staining method; type: functional, organism-based
Staphylococcus aureus [29] = assay: Antibiofilm activity in Staphylococcus aureus at 1 to 8 times MIC measured by Alamar blue assay; type: functional, organism-based
L929 = assay: Cytotoxicity against mouse L929 cells assessed as effect on cell growth at 0.25 to 0.5 ug/ml incubated for 24 hrs by MTT assay; type: toxicity, cell-based; conditions: l929, 24 h, dose 0.25-0.5 µg/ml
[30] = Toxicity in systemic sepsis mouse model infected with Staphylococcus aureus assessed as effect on liver morphology at 2.5 to 5 mg/kg administered every 12 hrs for 3 days and measured by H and E staining-based assay; type: organism-based; conditions: in vivo, 72 h, dose 2.5-5 mg/kg, time 3 day
[31] = Toxicity in systemic sepsis mouse model infected with Staphylococcus aureus assessed as effect on spleen morphology at 2.5 to 5 mg/kg administered every 12 hrs for 3 days and measured by H and E staining-based assay; type: organism-based; conditions: in vivo, 72 h, dose 2.5-5 mg/kg, time 3 day
[32] = Toxicity in systemic sepsis mouse model infected with Staphylococcus aureus assessed as effect on kidney morphology at 2.5 to 5 mg/kg administered every 12 hrs for 3 days and measured by H and E staining-based assay; type: organism-based; conditions: in vivo, 72 h, dose 2.5-5 mg/kg, time 3 day
[33] = Selectivity ratio of HC50 for hemolytic activity in human RBC to MIC for antibacterial activity against Pseudomonas aeruginosa; type: toxicity; conditions: human red blood cells (erythrocytes)
Pseudomonas aeruginosa [34] = assay: Antibacterial activity against Pseudomonas aeruginosa measured after 16 passages by resistance development assay; type: functional, organism-based
Pseudomonas aeruginosa [35] = assay: Inhibition of bacterial growth of Pseudomonas aeruginosa at 1 to 2 times MIC; type: functional
Pseudomonas aeruginosa [36] = assay: Bactericidal activity against Pseudomonas aeruginosa assessed as reduction in number of colonies at 0.5 to 2 times MIC measured within 6 hrs by time-kill assay; type: functional, organism-based
Pseudomonas aeruginosa [37] = assay: Induction of membrane depolarization in Pseudomonas aeruginosa at 0.5 to 2 times MIC measured upto 1 hr by DiSC35 dye-based fluorescence assay; type: functional, organism-based
Pseudomonas aeruginosa [38] = assay: Induction of outer membrane permeabilization in Pseudomonas aeruginosa preincubated for 30 mins at 1 to 8 times MIC measured by NPN fluorescent dye based assay; type: functional, organism-based
Pseudomonas aeruginosa [39] = assay: Induction of inner membrane permeabilization in Pseudomonas aeruginosa by measuring increase in fluorescence intensity at 1 to 8 times MIC by calcein-AM/PI staining based fluorescence analysis; type: functional, organism-based
Pseudomonas aeruginosa [40] = assay: Disruption of membrane integrity in Pseudomonas aeruginosa at 8 times MIC by calcein-AM/PI staining based fluorescence analysis; type: functional, organism-based
Pseudomonas aeruginosa [41] = assay: Disruption of membrane integrity in Pseudomonas aeruginosa assessed as increase in nucleic acid leakage by measuring increase in absorbance 1 to 8 times MIC measured for 6 hrs by spectrophotometry; type: functional, organism-based
Pseudomonas aeruginosa [42] = assay: Disruption of membrane integrity in Pseudomonas aeruginosa assessed as increase in protein leakage by measuring increase in absorbance 1 to 8 times MIC measured for 6 hrs by Bradford assay; type: functional, organism-based
Pseudomonas aeruginosa [43] = assay: Antibacterial activity against Pseudomonas aeruginosa assessed as reduction in LDH activity at 1 to 8 times MIC measured after 6 hrs by microplate reader method; type: functional; set-up: scale not given: the % may be the effect or the level left
Pseudomonas aeruginosa [44] = assay: Induction of oxidative stress in Pseudomonas aeruginosa assessed as increase in intracellular ROS level at 1 to 8 times MIC measured after 6 hrs by DCFH-DA staining method; type: functional, organism-based
Pseudomonas aeruginosa [45] = assay: Induction of oxidative stress in Pseudomonas aeruginosa assessed as decrease in GSH activity at 1 to 8 times MIC measured after 6 hrs by Ellman's assay; type: functional, organism-based
Pseudomonas aeruginosa [46] = assay: Antibacterial activity against Pseudomonas aeruginosa assessed as reduction in metabolic activity at 1 to 8 times MIC measured after 6 hrs by Alamar blue assay; type: functional, organism-based
Pseudomonas aeruginosa [47] = assay: Inhibition of biofilm formation in Pseudomonas aeruginosa at 1 to 8 times MIC measured after 24 hrs by crystal violet staining method; type: functional, organism-based
Pseudomonas aeruginosa [48] = assay: Antibiofilm activity in Pseudomonas aeruginosa at 1 to 8 times MIC measured by Alamar blue assay; type: functional, organism-based

Structure (SMILES): CCn1c2ccccc2c2cc(/C=N/Nc3ccc4c5c(cccc35)C(=O)N(C(CO)CO)C4=O)ccc21
- MIC (Staphylococcus aureus [1]): 64 µg/mL (≈ 126 µM)
- MIC (Enterococcus faecalis): 8 µg/mL (≈ 15.8 µM)
- MIC (Staphylococcus aureus [2]): 0.25 µg/mL (≈ 0.494 µM)
- MIC (Staphylococcus aureus [3]): 2 µg/mL (≈ 3.95 µM)
- MIC (Staphylococcus aureus [4]): 0.5 µg/mL (≈ 0.987 µM)
- MIC (Klebsiella pneumoniae): 8 µg/mL (≈ 15.8 µM)
- MIC (Escherichia coli [5]): 8 µg/mL (≈ 15.8 µM)
- MIC (Pseudomonas aeruginosa [6]): 64 µg/mL (≈ 126 µM)
- MIC (Acinetobacter baumannii): 64 µg/mL (≈ 126 µM)
- MIC (Pseudomonas aeruginosa [7]): 2 µg/mL (≈ 3.95 µM)
- MIC (Escherichia coli [8]): 128 µg/mL (≈ 253 µM)
- HC50 at 1 h [9]: 722 µg/mL
- selectivity ratio [10]: 2890
- hemolysis at 1 h [11]: < 5%
- Activity (Staphylococcus aureus [12]): Active
- inhibition (Staphylococcus aureus [13]): Active
- Activity (Staphylococcus aureus [14]): Active
- Activity (Staphylococcus aureus [15]): Active
- Activity (Staphylococcus aureus [16]): Active
- Activity (Staphylococcus aureus [17]): Active
- Activity (Staphylococcus aureus [18]): Active
- Activity (Escherichia coli [19]): Active
- Activity (Staphylococcus aureus [20]): Active
- Activity (Escherichia coli [21]): Active
- Activity (Staphylococcus aureus [22]): Active
- Activity (Staphylococcus aureus [23]): Active
- Activity (Staphylococcus aureus [24]): 70%
- Activity (Staphylococcus aureus [25]): Active
- Activity (Staphylococcus aureus [26]): Active
- Activity (Staphylococcus aureus [27]): Active
- inhibition (Staphylococcus aureus [28]): Active
- Activity (Staphylococcus aureus [29]): Active
- Activity (L929): Non-Toxic
- Activity [30]: Non-Toxic
- Activity [31]: Non-Toxic
- Activity [32]: Non-Toxic

Structure (SMILES): O=C1c2cccc3c(N/N=C/c4ccc5ccccc5c4)ccc(c23)C(=O)N1C(CO)CO
- MIC (Staphylococcus aureus [1]): 64 µg/mL (≈ 146 µM)
- MIC (Enterococcus faecalis): 64 µg/mL (≈ 146 µM)
- MIC (Staphylococcus aureus [2]): 4 µg/mL (≈ 9.1 µM)
- MIC (Staphylococcus aureus [3]): 64 µg/mL (≈ 146 µM)
- MIC (Staphylococcus aureus [4]): 128 µg/mL (≈ 291 µM)
- MIC (Klebsiella pneumoniae): 32 µg/mL (≈ 72.8 µM)
- MIC (Escherichia coli [5]): 16 µg/mL (≈ 36.4 µM)
- MIC (Pseudomonas aeruginosa [6]): 0.5 µg/mL (≈ 1.14 µM)
- MIC (Acinetobacter baumannii): 64 µg/mL (≈ 146 µM)
- MIC (Pseudomonas aeruginosa [7]): 1 µg/mL (≈ 2.28 µM)
- MIC (Escherichia coli [8]): 32 µg/mL (≈ 72.8 µM)
- HC50 at 1 h [9]: > 1000 µg/mL
- selectivity ratio [33]: > 2000
- hemolysis at 1 h [11]: < 5%
- Activity (Pseudomonas aeruginosa [34]): Active
- inhibition (Pseudomonas aeruginosa [35]): Active
- Activity (Pseudomonas aeruginosa [36]): Active
- Activity (Pseudomonas aeruginosa [37]): Active
- Activity (Pseudomonas aeruginosa [38]): Active
- Activity (Pseudomonas aeruginosa [39]): Active
- Activity (Pseudomonas aeruginosa [40]): Active
- Activity (Pseudomonas aeruginosa [41]): Active
- Activity (Pseudomonas aeruginosa [42]): Active
- Activity (Pseudomonas aeruginosa [43]): 70%
- Activity (Pseudomonas aeruginosa [44]): Active
- Activity (Pseudomonas aeruginosa [45]): Active
- Activity (Pseudomonas aeruginosa [46]): Active
- inhibition (Pseudomonas aeruginosa [47]): Active
- Activity (Pseudomonas aeruginosa [48]): Active
- Activity (L929): Non-Toxic
